Test results published in PubChem BioAssay (NCI).
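Following 48 hours of exposure in 96-well plates, responses at five concentrations were used to interpolate endpoints linearly. At the GI50, growth is halved. The concentration for full growth arrest is given as TGI.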

How the values were obtained:
Experiment in all cases: NCI tumour cell line growth inhibition, 48 h
MDA-MB-435 = system: MDA-MB-435
DU-145 prostate = system: DU-145 prostate
PC-3 prostate = system: PC-3 prostate
MDA-MB-231 breast = system: MDA-MB-231 breast
T-47D breast = system: T-47D breast
NCI/ADR-RES ovarian = system: NCI/ADR-RES ovarian

COc1cc(Nc2nc(N[C@H]3CCCC[C@@H]3N)nc3cc[nH]c(=O)c23)cc(OC)c1
GI50 (MDA-MB-435): 0.997 µM
TGI (MDA-MB-435): 2.6 µM
GI50 (DU-145 prostate): 0.74 µM
TGI (DU-145 prostate): 15.3 µM
GI50 (PC-3 prostate): 2.53 µM
TGI (PC-3 prostate): 20.8 µM
GI50 (MDA-MB-231 breast): 1.99 µM
TGI (MDA-MB-231 breast): 9.35 µM
GI50 (T-47D breast): 12.8 µM
TGI (T-47D breast): 30.2 µM
GI50 (NCI/ADR-RES ovarian): 41.4 µM
TGI (NCI/ADR-RES ovarian): > 100 µM

CN(C)c1ccc2cc(-c3ccccc3F)c(N)nc2c1
GI50 (MDA-MB-435): 0.288 µM
TGI (MDA-MB-435): 10.3 µM
GI50 (DU-145 prostate): 3.09 µM
TGI (DU-145 prostate): 13.2 µM
GI50 (PC-3 prostate): 2.21 µM
TGI (PC-3 prostate): 15.2 µM
GI50 (MDA-MB-231 breast): 3.71 µM
TGI (MDA-MB-231 breast): 19.6 µM
GI50 (T-47D breast): 1.26 µM
TGI (T-47D breast): 13.6 µM
GI50 (NCI/ADR-RES ovarian): 1.06 µM
TGI (NCI/ADR-RES ovarian): 12.3 µM

CC1OC2CC(=O)OC2C2=C1C(=O)c1c(O)c3c(c(O)c1C2=O)C1CC(O)C3(O)C(C)O1 (stereo not given)
GI50 (MDA-MB-435): 0.264 µM
TGI (MDA-MB-435): 0.591 µM
GI50 (DU-145 prostate): 1.38 µM
TGI (DU-145 prostate): 2.69 µM
GI50 (PC-3 prostate): 0.533 µM
TGI (PC-3 prostate): 6.47 µM
GI50 (MDA-MB-231 breast): 0.25 µM
TGI (MDA-MB-231 breast): 0.712 µM
GI50 (T-47D breast): 0.336 µM
TGI (T-47D breast): 1.55 µM
GI50 (NCI/ADR-RES ovarian): 0.273 µM
TGI (NCI/ADR-RES ovarian): 0.917 µM

CO/N=C(\C)c1ccc(Nc2cc(-c3ccccc3)nc3c(O)cccc23)cc1
GI50 (MDA-MB-435): 15.5 µM
TGI (MDA-MB-435): 30.9 µM
GI50 (DU-145 prostate): 14.1 µM
TGI (DU-145 prostate): 32 µM
GI50 (PC-3 prostate): 13.7 µM
TGI (PC-3 prostate): 35 µM
GI50 (MDA-MB-231 breast): 15 µM
TGI (MDA-MB-231 breast): 30.6 µM
GI50 (T-47D breast): 9.07 µM
TGI (T-47D breast): 27.8 µM
GI50 (NCI/ADR-RES ovarian): 14.5 µM
TGI (NCI/ADR-RES ovarian): 30.8 µM

O=NNc1nc(-c2cccnc2)nc2ccccc12
TGI (DU-145 prostate): > 100 µM
TGI (PC-3 prostate): > 100 µM
TGI (MDA-MB-231 breast): > 100 µM
TGI (T-47D breast): > 100 µM
TGI (NCI/ADR-RES ovarian): > 100 µM

CC(=O)Nc1ccc2c(c1)oc(=O)c1cc(NC(C)=O)ccc12
GI50 (MDA-MB-435): > 100 µM
TGI (MDA-MB-435): > 100 µM
GI50 (DU-145 prostate): > 100 µM
TGI (DU-145 prostate): > 100 µM
GI50 (PC-3 prostate): 92.4 µM
TGI (PC-3 prostate): > 100 µM
GI50 (MDA-MB-231 breast): 48.5 µM
TGI (MDA-MB-231 breast): > 100 µM
GI50 (T-47D breast): 59.6 µM
TGI (T-47D breast): > 100 µM
GI50 (NCI/ADR-RES ovarian): > 100 µM
TGI (NCI/ADR-RES ovarian): > 100 µM

C[C@@H]1CN(CC(=O)N2CC(C)(C)c3nc(CO)c(Cc4ccc(F)cc4)cc32)[C@@H](CN2CCOC[C@H]2C)CN1
GI50 (MDA-MB-435): 37.1 µM
TGI (MDA-MB-435): > 100 µM
GI50 (DU-145 prostate): 82.1 µM
TGI (DU-145 prostate): > 100 µM
GI50 (PC-3 prostate): 58.5 µM
TGI (PC-3 prostate): > 100 µM
GI50 (MDA-MB-231 breast): 2.02 µM
TGI (MDA-MB-231 breast): 21.8 µM
GI50 (T-47D breast): 17.2 µM
TGI (T-47D breast): 47.8 µM
GI50 (NCI/ADR-RES ovarian): 75.5 µM
TGI (NCI/ADR-RES ovarian): > 100 µM

Fc1cccc(COc2ccc(Nc3ncnc4cc(-c5ccc[nH]5)sc34)cc2Cl)c1
GI50 (MDA-MB-435): 6.11 µM
TGI (MDA-MB-435): > 25 µM
GI50 (DU-145 prostate): 3.34 µM
TGI (DU-145 prostate): > 16.4 µM
GI50 (PC-3 prostate): 0.77 µM
TGI (PC-3 prostate): > 15.7 µM
GI50 (MDA-MB-231 breast): 0.734 µM
TGI (MDA-MB-231 breast): > 15.7 µM
GI50 (T-47D breast): 0.0977 µM
TGI (T-47D breast): 7.35 µM
GI50 (NCI/ADR-RES ovarian): 3.29 µM
TGI (NCI/ADR-RES ovarian): > 25 µM

O=C1C(Cl)=C(Nc2cccc(O)c2)C(=O)N1c1cc(Cl)c(Cl)cc1Cl
GI50 (MDA-MB-435): 22.7 µM
TGI (MDA-MB-435): 55.9 µM
GI50 (DU-145 prostate): 17.4 µM
TGI (DU-145 prostate): 39.3 µM
GI50 (PC-3 prostate): 15.2 µM
TGI (PC-3 prostate): 31.6 µM
GI50 (MDA-MB-231 breast): 12.7 µM
TGI (MDA-MB-231 breast): 29.5 µM
GI50 (T-47D breast): 42.1 µM
TGI (T-47D breast): > 100 µM
GI50 (NCI/ADR-RES ovarian): 24.9 µM
TGI (NCI/ADR-RES ovarian): 55.7 µM

COc1ccc(-c2cn(-c3ccccc3)c(-c3ccccc3)n2)cc1OC
GI50 (MDA-MB-435): 2.94 µM
TGI (MDA-MB-435): 12.5 µM
GI50 (DU-145 prostate): 2.9 µM
TGI (DU-145 prostate): 7.92 µM
GI50 (PC-3 prostate): 5.53 µM
TGI (PC-3 prostate): 24.7 µM
GI50 (MDA-MB-231 breast): 10.8 µM
TGI (MDA-MB-231 breast): 23.5 µM
GI50 (T-47D breast): 1.75 µM
TGI (T-47D breast): 20.2 µM
GI50 (NCI/ADR-RES ovarian): 4.01 µM
TGI (NCI/ADR-RES ovarian): 30.2 µM

Cn1ccnc1C(=O)/C=C/c1ccc(CC(=O)Nc2ccccc2)cc1
GI50 (MDA-MB-435): 4.3 µM
TGI (MDA-MB-435): 13.7 µM
GI50 (DU-145 prostate): 1.1 µM
TGI (DU-145 prostate): 4.03 µM
GI50 (PC-3 prostate): 3.29 µM
TGI (PC-3 prostate): 8.55 µM
GI50 (MDA-MB-231 breast): 2.37 µM
TGI (MDA-MB-231 breast): 9.61 µM
GI50 (T-47D breast): 5.23 µM
TGI (T-47D breast): > 25 µM
GI50 (NCI/ADR-RES ovarian): 7.54 µM
TGI (NCI/ADR-RES ovarian): > 25 µM

CCCCCCCCCCCC[n+]1ccc(CCCCCCCCC)cc1
GI50 (DU-145 prostate): 1.37 µM
TGI (DU-145 prostate): 2.75 µM
GI50 (PC-3 prostate): 0.597 µM
TGI (PC-3 prostate): 1.93 µM
GI50 (T-47D breast): 0.28 µM
TGI (T-47D breast): 1.54 µM
GI50 (NCI/ADR-RES ovarian): 1.86 µM
TGI (NCI/ADR-RES ovarian): 3.62 µM

CCCCn1cnc2c(SC)ncnc21
TGI (MDA-MB-435): > 100 µM
TGI (DU-145 prostate): > 100 µM
TGI (PC-3 prostate): > 100 µM
TGI (MDA-MB-231 breast): > 100 µM
TGI (T-47D breast): > 100 µM
TGI (NCI/ADR-RES ovarian): > 100 µM

Fc1ccc2[nH]c3c(NCCCN4CCOCC4)ncnc3c2c1
GI50 (MDA-MB-435): 51 µM
TGI (MDA-MB-435): > 100 µM
GI50 (DU-145 prostate): 88 µM
TGI (DU-145 prostate): > 100 µM
GI50 (PC-3 prostate): 65.7 µM
TGI (PC-3 prostate): > 100 µM
GI50 (MDA-MB-231 breast): 23.6 µM
TGI (MDA-MB-231 breast): > 100 µM
GI50 (T-47D breast): 35.7 µM
TGI (T-47D breast): > 100 µM
GI50 (NCI/ADR-RES ovarian): > 100 µM
TGI (NCI/ADR-RES ovarian): > 100 µM

COC(=O)c1csc(-c2nc(CCNC(=O)OC(C)(C)C)sc2Br)n1
TGI (MDA-MB-435): > 100 µM
TGI (DU-145 prostate): > 100 µM
TGI (PC-3 prostate): > 100 µM
TGI (NCI/ADR-RES ovarian): > 100 µM

COc1ccc2c(c1)OC(N(C(C)=O)C(C)=O)=C(C#N)C2c1ccc(F)cc1 (stereo not given)
GI50 (DU-145 prostate): 2.85 µM
TGI (DU-145 prostate): > 100 µM
GI50 (PC-3 prostate): 2.2 µM
TGI (PC-3 prostate): > 100 µM
GI50 (MDA-MB-231 breast): 2.4 µM
TGI (MDA-MB-231 breast): > 100 µM
GI50 (T-47D breast): 4.98 µM
TGI (T-47D breast): > 100 µM
GI50 (NCI/ADR-RES ovarian): 0.953 µM
TGI (NCI/ADR-RES ovarian): > 100 µM

CCOP(=O)(OCC)C(NC(c1ccccc1)c1ccccc1)c1cccc2ccccc12 (stereo not given)
GI50 (MDA-MB-435): 9.18 µM
TGI (MDA-MB-435): 28.3 µM
GI50 (DU-145 prostate): 20.4 µM
TGI (DU-145 prostate): 39 µM
GI50 (PC-3 prostate): 3.37 µM
TGI (PC-3 prostate): 13.9 µM
GI50 (MDA-MB-231 breast): 1.56 µM
TGI (MDA-MB-231 breast): 9.63 µM
GI50 (NCI/ADR-RES ovarian): 9.79 µM
TGI (NCI/ADR-RES ovarian): 22.6 µM
